Measurements reported in US20240009220A1, “METHODS FOR TREATMENT OF VIRAL INFECTIONS” (priority 2022, published 2024).
Like-named read-outs stand apart in the source and are kept apart here.

Experiments:
[1] = female, Wistar Han, rat, in vivo, po, 250 mg/kg/day
Procedure: (§1) The effects of compound 16 on pregnant Wistar Han rats and development of the embryo consequent to exposure of the female from implantation to closure of the hard palate were evaluated. Compound 16 was administered to 4 groups of presumed pregnant rats (8/group) at doses of 0 (vehicle), 125, 250, and 500 mg/kg/day via once daily gavage administration during organogenesis (gestation days [GD] 6 to 17) at a dose volume of 5 mL/kg. Additional pregnant rats were similarly dosed for toxicokinetic assessment of compound 16 and compound 1. Assessment of toxicity to the pregnant rats was based on mortality, clinical observations, body weights and food consumption. Rats were necropsied and cesarean sectioned on GD 21. An examination of the external features of the carcass; external body orifices; abdominal, thoracic, pelvic, and oral cavities; organs; and tissues was performed. Any macroscopic abnormalities were noted. Pregnancy status was determined. The uterus from each pregnant animal was excised, weighed, and examined for the number and placement of live and dead fetuses, the number of early or late resorptions, and any abnormalities. The right and left ovaries from each pregnant female were examined for the number of corpora lutea. Each fetus was sexed, weighed, and examined for external abnormalities. […]

[2] = female, New Zealand White, rabbit, in vivo, po, 125 mg/kg/day
Procedure: (§2) The effects of compound 16 on pregnant New Zealand White (NZW) rabbits and the development of the embryo consequent to exposure of the female from implantation to closure of the hard palate (Gestation Days [GD] 7 through 19) was evaluated. Compound 16 was administered to 4 groups of pregnant rabbits (20/group) at doses of 0 (0.5% methylcellulose in deionized water), 125, 250, and 500 mg/kg/day once daily via oral gavage during organogenesis (GD 7 to 19). Assessment of toxicity was based on mortality, clinical observations, body weights, food consumption, and necropsy and cesarean section findings. In addition, blood samples were collected for toxicokinetic evaluation of compound 16 and compound 1 from similarly dosed animals (4/group).

SARS-CoV-2 Fluc = assay type: cell-based
[3] = Enhanced dose range-finding embryo-fetal development study of compound 16 by oral gavage in Wistar Han rats; conditions: female, Wistar Han, rat, in vivo, po
Procedure: as §1

pregnant Wistar Han rats [4] = test: as above; conditions: rat, in vivo
Procedure: as §1

[5] = Embryo-fetal development study of compound 16 by oral gavage in Wistar Han rats; assay type: in vivo; conditions: female, rat, in vivo; pregnant Wistar Han rats, once daily oral gavage GD 6 to 17, definitive study; read-out: no-observed-adverse-effect level (NOAEL) for maternal toxicity and embryofetal development
Procedure: (§3) The potential of compound 16 to induce developmental toxicity after maternal exposure during the critical period of organogenesis (GD 6 through 17) were evaluated, maternal toxicity at the exposure levels tested was characterized, and a no observed-adverse-effect level (NOAEL) for maternal toxicity and developmental toxicity following oral administration in Wistar Han rats was determined.
(§4) Rats were necropsied and cesarean sectioned on GD 21. […] Any macroscopic abnormalities were noted. Pregnancy status was determined. […] The thoracic and abdominal cavities were opened and dissected using a technique described by Stuckhardt and Poppe (1984). Fetal kidneys were examined and graded for renal papillae development (Woo and Hoar, 1972). The heads from these fetuses were removed and placed in Harrison's fixative for soft tissue examination using the Wilson sectioning technique (Wilson, 1965). The remaining fetuses (approximately one-half from each litter), were eviscerated, fixed in 100% ethyl alcohol, macerated in potassium hydroxide and stained with Alizarin Red S by a method similar to that described by Dawson (1926) for subsequent examination of skeletons.

pregnant Wistar Han rats [6] = test: as above; assay type: in vivo; conditions: 125 and 250 mg/kg/day, GD 6 to 17, rats
Procedure: as §3, §4

[7] = Oral gavage embryo-fetal development study with compound 16 in rabbits; conditions: female, New Zealand White, rabbit, in vivo, po
Procedure: as §2

[8] = system: pregnant New Zealand White (NZW) rabbits; test: as above
Procedure: as §2

Compound | compound 1 AUC0-24h exposure [1] | compound 1 AUC0-24h exposure [2] | Bliss independence consensus score, Average of Replicates (SARS-CoV-2 Fluc) | drug combination effect by Bliss score (SARS-CoV-2 Fluc) | NOAEL [3] | tolerability of dose level (pregnant Wistar Han rats [4]) | NOAEL [5] | effects on intrauterine growth or survival (pregnant Wistar Han rats [6]) | external, visceral or skeletal malformations or variations (pregnant Wistar Han rats [6]) | NOAEL [7] | skeletal malformations ([8]; rabbit fetuses) | fetal visceral findings ([8]; rabbit, in vivo, 250 mg/kg/day)
N#C[C@@]1(c2ccc3c(N)ncnn23)O[C@H](CO)[C@@H](O)[C@H]1O [Compound 1] | 183,000 ng*h/mL | 64,100 ng*h/mL | 8.00±1.09 | Additive | – | – | – | – | – | – | – | –
CC(C)C(=O)OC[C@H]1O[C@@](C#N)(c2ccc3c(N)ncnn23)[C@H](O)[C@@H]1O [Compound 16] | – | – | 6.15±2.16 | Additive | 250 mg/kg/day | not tolerated | 250 mg/kg/day | No compound 16-related effects | No compound 16-related external, visceral or skeletal malformations or variations | 125 mg/kg/day | No compound 16-related skeletal malformations | increased rates of ventricular septum defects, large or small heart ventricles, dilated or malpositioned aortas, retroesophageal aortic arches, retroesophageal subclavian arteries, abnormal lobulation of the liver
CC(C)C(=O)OC[C@H]1O[C@@H](n2ccc(NO)nc2=O)[C@H](O)[C@@H]1O [molnupiravir, Molnupiravir, reference compound] | – | – | −2.47 | Additive | – | – | – | – | – | – | – | –
CC(C)(C)[C@H](NC(=O)C(F)(F)F)C(=O)N1C[C@H]2[C@@H]([C@H]1C(=O)N[C@H](C#N)C[C@@H]1CCNC1=O)C2(C)C [nirmatrelvir, reference compound] | – | – | 0.13±1.53 | Additive | – | – | – | – | – | – | – | –
